Here are results for seven molecules from PMC6632015, “Niosomal Nanocarriers for Enhanced Skin Delivery of Quercetin with Functions of Anti-Tyrosinase and Antioxidant” (Molecules, 2019).

A word on the solubility: it is how much of the substance goes into solution per volume. For orientation: Solubility means the dissolved amount per volume that the medium holds. Read a low Solubility as a poorly soluble substance.

In one series the test system is tyrosinase. Put plainly: In vitro tyrosinase inhibition (dopachrome formation at 493 nm, L-tyrosine substrate). The following applies: for IC50 anti-tyrosinase activity: tyrosinase 120 unites/mL, phosphate buffer pH 6.8, 30 °C, L-tyrosine. Format: biochemical. The protocol:
The tyrosinase inhibition assay was performed based on a previous study with slight modification. The activity of tyrosinase inhibition was determined using a spectrophotometer by monitoring dopachrome formation at 493 nm. […] After incubation at 30 °C for 10 min, 0.5 mL of L-tyrosine was added to the systems. The reaction systems were incubated at 30 °C for 20 min and absorbance was determined at 493 nm. […] The degree of inhibition of the sample was expressed as 50% inhibition concentration (IC50).
The inhibitory effects of the test samples were expressed as the percentage of tyrosinase inhibition as follows:(1) Tyrosinase inhibition=(A−B)−(C−D)/(A−B)×100% where A and B denote the absorbance at 493 nm of the mixture without the test sample (L-tyrosine mixed with the enzyme in the buffer; the control) and without the test sample or the enzyme (L-tyrosine in the buffer; the blank), respectively; C and D denote those with the test sample and enzyme (L-tyrosine mixed with the enzyme and test sample in the buffer; the reaction mixture) and without the enzyme (L-tyrosine mixed with the test sample in the buffer; the blank version of C).

The nature of series [1]: DPPH radical scavenging activity. The following applies: DPPH 30 μg/mL, absorbance at 515 nm. The protocol:
The antioxidant activity of flavonoids was measured by the bleaching rate of DPPH, reported by Blois. In its radical form, DPPH absorbs at the wavelength of 515 nm, but its absorption decreases upon reduction by an antioxidant or a radical compound. The DPPH radical scavenging activity of flavonoids was evaluated according to the method described by Rui Yang, with some modifications. Briefly, 5 mL of DPPH (30 μg/mL) was mixed with 0.1 mL of absolute ethyl alcohol and 0.1 mL of samples with different concentrations. Then, the absorbance of the mixtures was determined at 515 nm. The DPPH radical scavenging activity was calculated as follows: (2) DPPH radical scavenging activity = A0−Ai/A0×100% where A0 and Ai denote the absorbance at 515 nm of the control (DPPH mixed with absolute ethyl alcohol) and the test samples (DPPH mixed with flavonoids).
For orientation: DPPH is a stable violet radical that fades when it is reduced.

Series [2] is described as follows: Water solubility of quercetin and solubility in niosomes. Format: physicochemical. The protocol:
The water solubility of quercetin was measured with 15 mL of purified water, phosphate buffers with different pH values (pH 5.0, 6.0, 6.8, 7.4, 8.0), and excess quercetin, and placed into vials. The vials were shaken for 24 h in a 37 °C water bath and the supernatant was determined by HPLC after centrifugation.

Series [3] is described as follows: Ex vivo drug permeation through rat abdominal skin (transdermal diffusion device). The conditions noted are these: 0.6% Tween80 receptor medium, up to 24 h. Format: in vitro ADME. As for the experimental part:
Rats were sacrificed by cervical dislocation, hair on the abdomen was shaved, and then abdominal skin was separated and placed into physiological saline. Afterward, subcutaneous tissue (muscle, fat, and vascellum) was removed using surgical scissors and hemostatic forceps and then stored at 4 °C with physiological saline for further investigation. […] Then, 0.6% Tween80 solution was selected as the penetration release medium. Skin tissues were placed between the diffusion cell and receptor cell, and 0.4 mL of quercetin preparations (equivalent to 120 μg of quercetin) was applied on the skin. Penetration medium (0.5 mL) was withdrawn from the receptor cell at 1, 2, 4, 6, 8, 10, 12, and 24 h with the replacement of fresh penetration medium (0.5 mL). Penetration mediums withdrawn at different timepoints were diluted to 7 mL with methanol and determined by HPLC after centrifugation and filtration.

A short description of series [4]: Solubility of quercetin in different release medium. Format: physicochemical. As for the experimental part:
An aqueous solutions of 15 mL of Tween80 and SDS at different concentrations and excess quercetin were placed into each of the vials. Vials were shaken in a 32 °C water bath for 24 h. After 24 h, 5 mL suspension was centrifuged at 3000 rmp for 15 min and 0.2 mL of the supernatant was diluted to 2 mL and determined using HPLC.

Values after ≈ are worked out from the molar mass of the structure shown.

In the case of `O=C(O)[C@H]1O[C@@H](Oc2cc3oc(-c4ccc(O)cc4)cc(=O)c3c(O)c2O)[C@H](O)[C@@H](O)[C@@H]1O` [Breviscapine], in the series on tyrosinase, the “anti-tyrosinase activity (in words)” value is listed as “no promising anti-tyrosinase activity” and the IC50 anti-tyrosinase activity is above 1000 µg/mL. In addition, the “EC50 DPPH radical scavenging activity” value in series [1] came to 368.08 ± 1.04 µg/mL (≈ 796 µM).

In the case of `Cc1cc(C(C)(C)C)c(O)c(C(C)(C)C)c1` [Butylated hydroxytoluene (BHT), Butylated hydroxytoluene, reference compound], the “EC50 DPPH radical scavenging activity” value in series [1] is 358.15 ± 1.43 µg/mL (≈ 1630 µM).

Regarding `O=c1c(O)c(-c2ccc(O)c(O)c2)oc2cc(O)ccc12` [Festin], on tyrosinase, the IC50 anti-tyrosinase activity was found to be 23.10 ± 0.32 µg/mL (≈ 80.7 µM). In addition, in series [1], the “EC50 DPPH radical scavenging activity” value was determined as 83.19 ± 0.33 µg/mL (≈ 291 µM).

Molecule `O=c1c(O)c(-c2ccc(O)cc2O)oc2cc(O)cc(O)c12` [Morin] came in with an IC50 anti-tyrosinase activity at tyrosinase of 4.26 ± 0.47 µg/mL (≈ 14.1 µM). For the same molecule, in series [1], the “EC50 DPPH radical scavenging activity” value turned out to be 123.06 ± 0.48 µg/mL (≈ 407 µM).

On to `O=c1c(O)c(-c2cc(O)c(O)c(O)c2)oc2cc(O)cc(O)c12` [Myricetin], for which the “anti-tyrosinase activity (in words)” value in the series on tyrosinase is recorded as “no the anti-tyrosinase activity”. Besides, the “EC50 DPPH radical scavenging activity” value in series [1] came to 118.63 ± 0.57 µg/mL (≈ 373 µM).

Regarding `O=c1c(O)c(-c2ccc(O)c(O)c2)oc2cc(O)cc(O)c12` [Quercetin], at tyrosinase, the IC50 anti-tyrosinase activity was found to be 1.59 ± 0.38 µg/mL (≈ 5.26 µM). In addition, the “solubility in niosomes, fold higher than in water” value in series [2] stood at 1247 fold. For the same molecule, the solubility at 24 h in series [2] (37 °C, water, thermodynamic from solid) is 0.21 ± 0.14 µg/mL (≈ 0.695 µM); in series [4] (0.2% SDS aqueous solution, 0.2% SDS, 32 °C, 24 h, read-out: Solubility in SDS Aqueous Solution) it was 4.58 ± 0.04 µg/mL (≈ 15.2 µM); in series [4] (0.2% Tween80 aqueous solution, 32 °C, aqueous with cosolvent or surfactant or cyclodextrin, thermodynamic from solid, 0.2% Tween80, 32 °C, 24 h, read-out: Solubility in Tween80 Aqueous Solution), 24.7 ± 2.15 µg/mL (≈ 81.8 µM); in series [4] (0.3% Tween80 aqueous solution, 0.3% Tween80, 32 °C, 24 h, read-out: Solubility in Tween80 Aqueous Solution), 31.4 ± 0.73 µg/mL (≈ 104 µM); in series [4] (0.4% Tween80 aqueous solution, 0.4% Tween80, 32 °C, 24 h, read-out: Solubility in Tween80 Aqueous Solution), 41.34 ± 0.19 µg/mL (≈ 137 µM); in series [4] (0.6% SDS aqueous solution, 32 °C, aqueous with cosolvent or surfactant or cyclodextrin, thermodynamic from solid, 0.6% SDS, 32 °C, 24 h, read-out: Solubility in SDS Aqueous Solution), 6.48 ± 0.44 µg/mL (≈ 21.4 µM). Further, the solubility at 24 h in series [4] (0.6% Tween80 aqueous solution, 0.6% Tween80, 32 °C, 24 h, read-out: Solubility in Tween80 Aqueous Solution) was found to be 56.4 ± 1.42 µg/mL (≈ 186 µM); in series [4] (0.8% Tween80 aqueous solution, 32 °C, aqueous with cosolvent or surfactant or cyclodextrin, thermodynamic from solid, 0.8% Tween80, 32 °C, 24 h, read-out: Solubility in Tween80 Aqueous Solution) it was 76.1 ± 3.11 µg/mL (≈ 252 µM); in series [4] (0.8% Tween80 aqueous solution, 32 °C, pH 5, aqueous with cosolvent or surfactant or cyclodextrin, thermodynamic from solid, 0.8% Tween80, pH 5.0, read-out: Solubility in pH-0.8%Tween80 Aqueous Solution), 76.1 ± 3.11 µg/mL (≈ 252 µM); in series [4] (0.8% Tween80 aqueous solution, 32 °C, pH 6.8, aqueous with cosolvent or surfactant or cyclodextrin, thermodynamic from solid, 0.8% Tween80, pH 6.8, read-out: Solubility in pH-0.8%Tween80 Aqueous Solution), 52.4 ± 0.71 µg/mL (≈ 173 µM); in series [4] (0.8% Tween80 aqueous solution, pH 7.4, 0.8% Tween80, pH 7.4, read-out: Solubility in pH-0.8%Tween80 Aqueous Solution) it was 55 ± 6.6 µg/mL (≈ 182 µM). Moreover, the Solubility in series [2] (medium: niosomes, from 300 μg/mL loaded and entrapment 87.3 ± 1.6%) worked out at 261.9 ± 4.8 µg/mL (≈ 867 µM). The “quercetin in the penetration release medium (ex vivo penetration)” value in series [3] is recorded as “could not be determined”. Also, in series [4] (0.1% Tween80, 32 °C, 24 h), the “Solubility in Tween80 Aqueous Solution” value was found to be 12.19 ± 1.05 µg/mL (≈ 40.3 µM). Further, the “Solubility in SDS Aqueous Solution” value in series [4] (0.4% SDS, 32 °C, 24 h) came out at 4.22 ± 0.43 µg/mL (≈ 14 µM). Besides, the “Solubility in pH-0.8%Tween80 Aqueous Solution” value in series [4] (0.8% Tween80, pH 5.0) was determined as 79.49 ± 0.41 μg/mL. For the same molecule, the “EC50 DPPH radical scavenging activity” value in series [1] is 80.75 ± 0.26 µg/mL (≈ 267 µM).

For the molecule `C[C@@H]1O[C@@H](OC[C@H]2O[C@@H](Oc3c(-c4ccc(O)c(O)c4)oc4cc(O)cc(O)c4c3=O)[C@H](O)[C@@H](O)[C@@H]2O)[C@H](O)[C@H](O)[C@H]1O` [Rutin], in the series with tyrosinase, the “anti-tyrosinase activity (in words)” value is given as “no promising anti-tyrosinase activity” and the IC50 anti-tyrosinase activity is above 1000 µg/mL. In addition, the “EC50 DPPH radical scavenging activity” value in series [1] turned out to be 188.28 ± 0.68 µg/mL (≈ 308 µM).
